{
  "source": "patent US20220233503A1",
  "about": "“METHODS OF TREATING SEPSIS WITH SYNAPTIC VESICLE 2A AND/OR 2B BINDING CHEMICAL ENTITIES” (INSTITUT PASTEUR, priority 2016, published 2022)",
  "key": {"CLP mice [1]": {"tested_on": "CLP mice", "assay": "Survival after cecal ligature and puncture (CLP) sepsis", "assay_type": "in vivo, C57Bl/6 mice", "settings": "300 mg/Kg intraperitoneously, within the first four days, placebo 53%, n=212, p<0.001", "procedure": "Cecal ligature and puncture: Cecal ligature and puncture on mice were performed under general anesthesia. Briefly, C57Bl/6 mice were anesthetized with an intraperitoneal injection of Xylazine (20 mg/Kg, Rompun 2%, Bayer, Leverkusen, Germany), and Ketamine (100 mg/Kg, Imalgene, Mérial, Lyon, France) in 100 μl of saline solution at 0.9%. After anesthetic administration, mice were placed in a heated cage or surgical table upon awakening to maintain a body temperature at 37° C. Absence of reaction to leg and tail pinch were checked before incision of abdominal wall and peritoneum. Caecum was found with wet cotton swabs and exposed before loose ligation with Mersilk 4.0 (Ethicon, Cincinatti, USA), 2 transfixiant punctures were realized avoiding blood vessels with a 21G needle. Feces were expressed between cotton swabs before suturing abdominal muscles and peritoneum in 2 separate plans.\nAnalgesia and rehydration of mice were performed with buprenorphine (0.1 mg/Kg, Buprecare, Axience, Pantin, France) every 12 hours until complete recovery. […] Clinical scoring: Sepsis severity was evaluated twice a day until day 4, or normalization of «sepsis score», a previously described score that ranges from 1 to 12. […] Each item was scored 0 or 1, with a total score rang from 0 (normal) to 12 (highly severe). […]"}, "[2]": {"tested_on": "murine primary monocytic cells", "assay": "Nitric Oxide production in primary monocytic cells exposed to LPS", "assay_type": "cell-based", "settings": "activated murine monocytic cells, LPS 10 μg/mL, cell culture supernatant, dose effect relationship", "procedure": "LPS exposure increased NO production at a dose of 10 μg/mL after 24 exposure in cell culture supernatant."}, "TNF alpha, IL1 beta": {"tested_on": "TNF alpha, IL1 beta", "assay": "ELISA assay on brain parenchyma after sepsis", "assay_type": "in vivo, mice", "settings": "during sepsis", "experimental": "FIG. 3C—An ELISA assay was performed on brain parenchyma to detect lower changes in cytokine concentration."}, "[3]": {"tested_on": "CD11b positive cells (microglial cells)", "assay": "mRNA expression of M1/M2 markers and cytokines in sorted CD11b positive cells after sepsis", "assay_type": "in vivo, mice", "procedure": "RNA Purification: Total brains or mircodissected brain under binoccular magnifier were collected in liquid nitrogen and stored at −80° C. before processing. Tissues were unfrosted in 1 ml of Qiazol (Qiagen, Nederland) and shredded using a TissueLyzer II and metallic beads (Qiagen, Nederland). Two hundred microlitters of chloroform (Merck, Darmstadt, Deutschland) were added before spinning for 15′ at 4° C.-20 000 rpm. The upper aqeuous phase was collected and purified using RNEasy Minikit with a DNAse step (Qiagen, Nederland) to remove any remaining genomic DNA. Purified RNA were quantified and a reverse transcription on 500 ng of RNA using SuperScript® II Reverse Transcriptase (Life Technologies) was realized. Quantitative real time polymerase chain reaction was performed on 10 ng cDNA with SYBR® Select Master Mix (Roche, Franche) following manufacturer's recommandation on a StepOne™ Real-Time PCR System (Life Technologies) and results were analyzed on StepOne softwares. Triplicates with a Cycle Threshold standard deviation <0.2 were considered for further analyzes. ΔΔCT method was used to quantify fold increases between animals from different groups to control group mean. The following primers were used.\nDatas are presented as mean±SEM compared to septic placebo group set at 1."}, "[4]": {"tested_on": "primary murine microglial cells", "assay": "Pro- and anti-inflammatory marker transcription in primary microglial cells exposed to LPS", "assay_type": "cell-based, C57/B16 mice", "settings": "primary microglial cells after LPS exposure", "description": "NO: 53) and anti-sense primer:[…] NO: 54). […] ID NO: 55) and anti-sense primer […] NO: 56). […] NO: 57) and anti-sense primer:[…] NO: 58)."}, "CLP mice [5]": {"tested_on": "CLP mice", "assay": "Splash test after sepsis", "assay_type": "in vivo", "settings": "levetiracetam vs placebo treated CLP mice", "procedure": "Splash test: Mice were placed in a new cage 45 minutes before testing in the experimental room. They were then held onto a grid and 200 μl of sucrose 10% solution was spray on their back's fur. They were then placed in the home cage for 5 minutes. The latency before the first time mice groomed, the number of cleaning sessions and the total amount of time spent cleaning during the 5 minute test were measured. Mice were then placed back in their cage. Datas are presented as Mean±SEM.\nFIG. 2: Innate anxiety behavior and depressive phenotype was investigated with the elevated plus maze and splash test."}, "[6]": {"tested_on": "pro- and anti-inflammatory cytokine levels in Serum", "assay": "Cytokine multiplex in serum after sepsis", "assay_type": "in vivo, mice", "settings": "24 hours after sepsis induction", "procedure": "Cytokine multiplex: Brain samples were weighed and unfrosted in 100 μl of extraction buffer (PBS 1×, complete protease inhibitor, sigma-aldrich, triton 0.1%) processed in 2 ml Lysing Matrix A tubes with FastPrep-24 (MP biomedicals, Germany). Tubes were centrifuged at 20000 g at 4° C. and supernatant was collected and protein concentration was determined with light absorbance at 280 nm using a Nanodrop Lite Spectrophotometer (Thermo Scientific). Sera were used undiluted. Cytokines were measured using a Bio-Plex System and Mouse Cytokine Standard 23-Plex Group 1 kit following manufacturer's recommendations. Raw datas were analyzed by dividing the concentration of cytokine with protein concentration in lyzate and weight of sample measured on precision balance. Then every cytokine concentrations are presented as a ratio compared to the untreated sepsis group."}, "[7]": {"settings": "CD11b positive cells, 24 hours after sepsis, vs placebo"}},
  "data": [
    {"smiles": "CC[C@@H](C(N)=O)N1CCCC1=O", "note": "(single isomer, unassigned) [levetiracetam]", "values": [
      {"measurement": "survival rate", "setting": "CLP mice [1]", "result": 81, "unit": "%"},
      {"measurement": "production of Nitric Oxide", "setting": "[2]", "result": "reduced"},
      {"measurement": "TNF alpha expression in brain parenchyma (ELISA)", "setting": "TNF alpha, IL1 beta", "result": "No difference"},
      {"measurement": "IL1 beta in brain parenchyma (ELISA)", "setting": "TNF alpha, IL1 beta; p<0.05", "result": "increased"},
      {"measurement": "CD32 transcription", "setting": "[3]; [7]", "result": "increased"},
      {"measurement": "CD86 transcription", "setting": "[3]; [7]", "result": "increased"},
      {"measurement": "Il 1 beta transcription", "setting": "[3]; [7]", "result": "increased"},
      {"measurement": "MCP 1 transcription", "setting": "[3]; [7]", "result": "increased"},
      {"measurement": "anti inflammatory markers transcription", "setting": "[3]; [7]", "result": "not increased"},
      {"measurement": "microglial cell polarization", "setting": "[3]; microglial cell sorting in whole brain of septic mice", "result": "polarized towards a pro-inflammatory (M1) phenotype"},
      {"measurement": "expression of anti and proinflammatory markers", "setting": "[4]", "result": "modified"},
      {"measurement": "depressive phenotype (splash test)", "setting": "CLP mice [5]", "result": "No difference"},
      {"measurement": "cytokine concentration in plasma", "setting": "[6]", "result": "No significant effect"}
    ]}
  ]
}
